{"source": "patent US7754748B2", "about": "“Method for treating obesity” (Duke University, priority 2002, dated 2010)", "key": {"[1]": {"settings": "epileptic patients taking other concomitant AEDs; small percent of patients; cited from earlier work"}, "[2]": {"test": "Example 3 case: obese person, zonisamide then bupropion SR added", "assay_type": "in vivo, human", "procedure": "An obese person (weight 246 lb, BMI 41.4 kg/m^2) who had not benefited from various treatments, was started on zonisamide 100 mg/day and the dose was increased gradually to 400 mg a day over the next 4 weeks. […] At this point, zonisamide dose was increased to 600 mg a day; the patient achieved an additional weight loss of 0.6 lb in the next month. Thus, after 3 months of zonisamide therapy, the total weight loss with zonisamide therapy was 5.2 lb. […] They reported that they felt “full” after eating small portions of food, and had more energy."}, "[3]": {"test": "optional 16-week single-blinded extension phase (to Week 32), zonisamide vs placebo in obese subjects", "assay_type": "in vivo, human", "settings": "for mean weight loss at Week 32: placebo 1.82% (0.73%)", "procedure": "(§1) The study had two phases. The first was the acute phase—a 16-week, randomized, double blind, parallel-group comparison of zonisamide (ZON) and placebo (PBO). This was followed by an optional 16-week extension phase. At the end of the acute phase, subjects wishing to continue further received the same treatment for an additional 16 weeks in a single-blinded fashion.\n(§2) During each visit, the following assessments were performed: blood pressure, heart rate, weight, dietary compliance, medication accountability and tolerability, and adverse effects. Body weight was measured on a calibrated electronic scale to the nearest 0.1 kilogram. A registered dietitian reviewed food diaries and assessed dietary compliance. Adverse effects were gathered via spontaneous reporting by subjects as well as open-ended inquiries by the clinicians.\nIn addition to the above, the subjects completed the Impact of Weight on Quality of Life (IWQOL) (Kolotin et al, Obesity Res. 3:49-56 (1995)) at baseline, Week 8, and Week 16. The IWQOL is a self-report measure with 74 items that assess the perceived effect of weight on quality of life in the following domains (subscales)—health, social/interpersonal life, work, mobility, self-esteem, sexual life, activities of daily living, and eating (comfort with food). Improvement with treatment is reflected by decreasing scores on all the subscales with the exception of the eating (comfort with food) subscale, which is expected to show less comfort around food with effective treatment. Body composition (fat and lean masses) and bone mineral density (BMD) were determined, at baseline and Week 32, by dual x-ray absorptiometry (DXA; Hologic 2000, Waltham, Mass.). All DXA measurements were gathered using the same equipment and techniques. Subjects were instructed to fast for 8 hours and not to drink water or other beverages for at least 4 hours prior to DXA measurement.\nWeight change during the study was assessed in terms of actual weight change over the six study intervals using multivariable regression methodology, and as a dichotomous outcome of ‘response,’ i.e., 5% weight loss at Week 16, and 5% and 10% weight loss at Week 32. The proxy variables denoting response status were tested across treatment conditions again using Fisher's exact test. Three multivariable regression analyses were conducted. In the first, body weight at each time point was modeled using a random effects growth curve model. Heuristically, the model fits a regression line for each subject using available data points, thus maximizing use of actual data. For the second set of analyses, body weights were regressed as above with missing observations carried forward from the last recorded weight based on an intent-to-treat approach (LOCF). The final model was restricted to the subset of respondents with no missing data (completers).\nSecondary analyses were conducted over three general areas of interest. In each case, analyses were based on 2×2 repeated measures ANOVAs that included time, drug condition, and their interaction (time-by-drug). The primary interest in each instance was to determine if subjects in the zonisamide condition were differentially affected relative to controls as operationally determined by testing the significance of the estimated interaction term. Tests in first area of interest focused on clinical indicators including levels of creatinine, glucose, triglycerides, high and low density lipoproteins (all assessed at baseline and study conclusion), waist measurements (baseline, Week 8 and Week 16), blood pressure (systolic and diastolic), and heart rate. The second general area of sampled quality of life indicators including activities of daily living, appetite, esteem, health, interpersonal relations, mobility, sex, and work using the IWQOL Scale; repeated measurements were taken at baseline, Week 8, and Week 16). The final set of secondary analyses sampled hunger and appetite using the Visual Analogue Scale for Hunger and Food Cravings. […]"}, "[4]": {"test": "16-week randomized, double blind acute phase, zonisamide vs placebo in obese subjects", "assay_type": "in vivo, human", "source_text": "Sixty-eight subjects were screened for participation and 60 subjects were randomized.\nInclusion criteria were: male or female, aged 21-50 years, with body mass index (BMI) of ≧30 kg/m^2.\nas §1\nThe subjects were randomized in a 1:1 ratio to receive zonisamide or placebo capsules. Study medication was dispensed under blinded conditions through computer-based randomization. The randomization was generated using a random number table with a block size of ten. There was no stratification by gender or other demographics. The study investigators were blind to the “blocking” method used by the pharmacy. The treatment assignment codes were not available to the investigators until all subjects completed the acute phase, the data were entered, and the database for this phase was locked, meaning that no further changes could be made to the data.\nThe study medication was dispensed in the form of capsules. Each capsule contained either 100 milligrams zonisamide or placebo. The capsules were made to look identical. The dose escalation was as follows: one capsule (zonisamide 100 mg or placebo) every evening for the first 2 weeks; two capsules (zonisamide 200 mg or placebo) every evening during Weeks 3 and 4; three capsules (zonisamide 300 mg or placebo) every evening during Weeks 5 and 6; and, four capsules (zonisamide 400 mg or placebo) every evening from Week 7 onward. At Week 12, the dose could be increased further to six capsules (zonisamide 600 mg or placebo) every evening for subjects who had not lost at least 5% of their initial body weight. If a subject preferred not to take all six capsules at one time, taking a half of the daily dose in the morning was an option. Based on tolerability, dose escalation could be withheld, or the dose might also be decreased. Medication compliance was overseen by recording the number of tablets returned and comparing this number to the number of capsules dispensed at each visit.\nSubjects in both treatment groups were instructed to follow an individual diet that was 500 Kcal/day less than what they needed to maintain their weight. The prescribed diet, based on eating a variety of foods from the Food Guide Pyramid, emphasized decreasing portions, eating more fruits and vegetables, and drinking 8 cups of water each day. Increased physical activity was also encouraged for subjects in both groups. Subjects were asked to record their dietary intake including portion sizes in food diaries, which were provided to them. A registered dietician reviewed food diaries and provided counseling to all subjects. Subjects were encouraged to make healthy changes in their diets and physical activity that could be maintained after the completion of the study.\nas §2\nIn addition to the above, the subjects completed the Impact of Weight on Quality of Life (IWQOL) (Kolotin et al, Obesity Res. 3:49-56 (1995)) at baseline, Week 8, and Week 16. The IWQOL is a self-report measure with 74 items that assess the perceived effect of weight on quality of life in the following domains (subscales)—health, social/interpersonal life, work, mobility, self-esteem, sexual life, activities of daily living, and eating (comfort with food). […]"}, "[5]": {"test": "optional 16-week single-blinded extension phase (to Week 32), zonisamide vs placebo in obese subjects", "assay_type": "in vivo, human", "settings": "Week 32, versus placebo; p<0.0030, p<0.0651, p<0.0019, P<0.0005"}, "[6]": {"test": "Example 4 case: obese person, zonisamide then bupropion added", "assay_type": "in vivo, human", "procedure": "An obese person received zonisamide in a clinical trial and achieved weight loss of 35.6 lb over 32 weeks. During the 5 weeks following discontinuation of zonisamide, they gained 7.7 lb. Zonisamide was restarted, but this intervention was unsuccessful in offsetting the regained weight; after 16 weeks of therapy at doses up to 400 mg/d, the patient gained 1.2 lb."}, "[7]": {"test": "Example 2 case: obese person, bupropion then zonisamide added", "assay_type": "in vivo, human", "procedure": "At this point, zonisamide was added to the regimen at 100 mg/day and the dose was increased after 2 weeks to 200 mg/day. […] No further information is available as the patient has relocated."}}}
{"compound": "NS(=O)(=O)Cc1noc2ccccc12", "note": "[zonisamide]", "values": [{"measurement": "weight loss observed as an adverse effect", "setting": "[1]", "result": "a small degree of weight loss"}, {"measurement": "total weight loss", "setting": "[2]; after 3 months of zonisamide therapy", "result": 5.2, "unit": "lb"}, {"measurement": "weight lost", "setting": "[2]; after one month, zonisamide up to 400 mg a day, start weight 246 lb", "result": 4.6, "unit": "lbs"}, {"measurement": "additional weight loss", "setting": "[2]; in the next month, zonisamide 600 mg a day", "result": 0.6, "unit": "lb"}, {"measurement": "weight change during the second month", "setting": "[2]; zonisamide 400 mg a day", "result": "no further weight loss"}, {"measurement": "bone mineral density at lumbar vertebrae (L-BMD)", "setting": "[3]; DXA, baseline vs Week 32", "result": "did not change over time"}, {"measurement": "total bone mineral density", "setting": "[3]; DXA, baseline vs Week 32, both groups, no difference between groups, not clinically significant", "result": "small, but statistically significant (p<0.017) increase"}, {"measurement": "mean lipid values", "setting": "[3]; either treatment, significant reductions for some subjects", "result": "No clinically significant changes"}, {"measurement": "serum creatinine after treatment", "setting": "[3]; extension phase subjects, baseline 0.78 (0.03) mg/dL, placebo 0.75 to 0.77", "result": "0.92 (0.03) mg/dL"}, {"measurement": "estimated rate of occurrence of kidney stones", "setting": "[3]; for the duration of treatment in this study (approximately 8 months)", "result": "62.5 per 1000 patient-years of exposure"}, {"measurement": "absolute weight at Week 32", "setting": "[3]; from 96.88 (3.01) kg, placebo 96.39 to 94.85 kg", "result": "87.64 (2.95) kg"}, {"measurement": "subjects who lost >=10% weight at Week 32", "setting": "[3]; none of the placebo subjects, p<0.0004", "result": "Ten of 19"}, {"measurement": "heart rate", "setting": "[3]; over 32 weeks", "result": "no significant change"}, {"measurement": "mean weight loss at Week 32", "setting": "[3]", "result": 9.4, "unit": "%"}, {"measurement": "mean weight loss at Week 32", "setting": "[3]; listed as Zonisamide", "result": 9.37, "unit": "%"}, {"measurement": "heart rate change versus placebo", "setting": "[4]; 16 weeks, overall sample decreased approximately 2 beats/min", "result": "no difference between the groups"}, {"measurement": "absolute weight at Week 16", "setting": "[4]; ITT-LOCF, baseline 98.17 (2.5) kg, placebo 97.75 to 96.86 kg", "result": "92.28 (2.47) kg"}, {"measurement": "subjects achieving >=10% weight loss at Week 16", "setting": "[4]; ITT-LOCF, placebo 0/30, p<0.0053", "result": "7/30"}, {"measurement": "subjects achieving >=5% weight loss at Week 16 (number)", "setting": "[4]; ITT-LOCF, placebo 3 of 30, p<0.0003", "result": "17 of 30"}, {"measurement": "subjects achieving >=5% weight loss at Week 16 (percent)", "setting": "[4]; ITT-LOCF, placebo 10%", "result": 57, "unit": "%"}, {"measurement": "predicted weight loss per week (drug-by-time interaction regression coefficient)", "setting": "[4]; LOCF intent-to-treat imputation", "result": 0.29, "unit": "kg/wk"}, {"measurement": "mean (SE) estimated weight loss", "setting": "[4]; Week 16, ITT analysis with LOCF, n=30, placebo 1.02% (0.40%), p<0.0001", "result": 5.98, "unit": "%"}, {"measurement": "serum creatinine after treatment", "setting": "[4]; acute phase, baseline 0.79 (0.03) mg/dL, placebo 0.76 to 0.79", "result": "0.92 (0.03) mg/dL"}, {"measurement": "systolic and diastolic blood pressure readings", "setting": "[4]; by four months", "result": "did not change"}, {"measurement": "weight loss, subjects completing the 16-week acute phase", "setting": "[4]; completers, Week 16, placebo 1.30% (0.49%)", "result": 6.61, "unit": "%"}, {"measurement": "predicted weight loss per week (drug-by-time interaction regression coefficient)", "setting": "[4]; likelihood imputed model, versus placebo", "result": "> 0.3", "unit": "kg"}, {"measurement": "predicted weight loss per week (drug-by-time interaction regression coefficient)", "setting": "[4]; model based only on complete-data subjects", "result": 0.21, "unit": "kg/wk"}, {"measurement": "increase in serum creatinine", "setting": "[4]; no further increase in the extension phase, no value exceeded upper limit of normal", "result": "approximately 16%"}, {"measurement": "subjects reporting fatigue", "setting": "[4]; of 30, placebo 1, p<0.006", "result": 10, "unit": "subjects"}, {"measurement": "adverse effects (AEs) reported per subject, average", "setting": "[4]; over the study period, placebo 1.6, p<0.125", "result": 2.1}, {"measurement": "tolerability", "setting": "[4]; whole study", "result": "generally well tolerated"}, {"measurement": "Impact of Weight on Quality of Life (IWQOL): Health, Work, Mobility, Activities of Daily Living", "setting": "[5]", "result": "improved more significantly"}, {"measurement": "weight gained on restarted therapy", "setting": "[6]; after 16 weeks of restarted zonisamide at doses up to 400 mg/d", "result": 1.2, "unit": "lb"}, {"measurement": "weight gained following discontinuation", "setting": "[6]; during the 5 weeks following discontinuation of zonisamide", "result": 7.7, "unit": "lb"}, {"measurement": "weight loss", "setting": "[6]; over 32 weeks, zonisamide in a clinical trial", "result": 35.6, "unit": "lb"}]}
{"compound": "CC(NC(C)(C)C)C(=O)c1cccc(Cl)c1", "note": "(centres unmarked) [bupropion]", "values": [{"measurement": "net weight loss", "setting": "[7]; after 2 months on bupropion", "result": 1.6, "unit": "lbs"}, {"measurement": "weight lost", "setting": "[7]; after one month, bupropion 150 mg twice a day, start weight 271 lb", "result": 5, "unit": "lbs"}, {"measurement": "weight regained", "setting": "[7]; during the second month on bupropion", "result": 3.4, "unit": "lbs"}]}
